Test results from patent publication US12077503B2, “Substituted cyclic amides and their use as herbicides” (FMC CORPORATION, priority 2015, dated 2024).

How the values were obtained:
Format in all cases: in vivo
[1] = tested on: ivy-leaved morning glory (Ipomoea hederacea); test: Test G Pre-Emergence Protocol; settings: Ipomoea, pre-emergence, 312 h, evaluated after 13 days; for pest or weed control at 15.625 g/ha: 15.625 g ai/ha, read-out: Morning-glory, Ivy-leaved damage rating (100=total damage to plant; 0=no damage to plant); for pest or weed control at 62.5 g/ha: 62.5 g ai/ha, 100=total damage to plant, 0=no damage to plant, read-out: plant damage rating, Morningglory, Ivy-leaved; for pest or weed control at 250 g/ha: 250 g ai/ha, read-out: Morningglory, Ivy-leaved damage rating (100=total damage to plant; 0=no damage to plant)
Outline: (§1)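 Herbicidal effect was rated 13 days post-application on a scale where 100 equals total damage. Spraying took place the day after sowing, using 15.625, 62.5 or 250 g/ha of compound in a 50:50 acetone/water solution with 0.5% Tween 20.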

[2] = tested on: redroot pigweed (Amaranthus retroflexus); test: Test G Pre-Emergence Protocol; settings: Amaranthus retroflexus, pre-emergence, 312 h, evaluated after 13 days; for pest or weed control at 15.625 g/ha: 15.625 g ai/ha; for pest or weed control at 15.625 g/ha / pest or weed control at 250 g/ha: read-out: Pigweed, Redroot damage rating (100=total damage to plant; 0=no damage to plant); for pest or weed control at 62.5 g/ha: 62.5 g ai/ha, 100=total damage to plant, 0=no damage to plant, read-out: plant damage rating, Pigweed, Redroot; for pest or weed control at 250 g/ha: 250 g ai/ha
Outline: as §1

corn (Zea mays) [3] = test: Test G Pre-Emergence Protocol; settings: Zea mays, pre-emergence, 312 h, evaluated after 13 days; for plant injury at 15.625 g/ha: 15.625 g ai/ha; for plant injury at 15.625 g/ha / plant injury at 250 g/ha: read-out: Corn damage rating (100=total damage to plant; 0=no damage to plant); for plant injury at 62.5 g/ha: 62.5 g ai/ha, 100=total damage to plant, 0=no damage to plant, read-out: plant damage rating, Corn; for plant injury at 250 g/ha: 250 g ai/ha
Outline: as §1

[4] = tested on: barnyardgrass (Echinochloa crus-galli); test: Test G Pre-Emergence Protocol; settings: Echinochloa crus-galli, pre-emergence, 312 h, evaluated after 13 days; for pest or weed control at 15.625 g/ha: 15.625 g ai/ha, read-out: Barnyard grass damage rating (100=total damage to plant; 0=no damage to plant); for pest or weed control at 62.5 g/ha: 62.5 g ai/ha, 100=total damage to plant, 0=no damage to plant, read-out: plant damage rating, Barnyardgrass; for pest or weed control at 250 g/ha: 250 g ai/ha, read-out: Barnyardgrass damage rating (100=total damage to plant; 0=no damage to plant)
Outline: as §1

[5] = tested on: giant foxtail (Setaria faberi); test: Test G Pre-Emergence Protocol; settings: Setaria faberi, pre-emergence, 312 h, evaluated after 13 days; for pest or weed control at 15.625 g/ha: 15.625 g ai/ha; for pest or weed control at 15.625 g/ha / pest or weed control at 250 g/ha: read-out: Foxtail, Giant damage rating (100=total damage to plant; 0=no damage to plant); for pest or weed control at 62.5 g/ha: 62.5 g ai/ha, 100=total damage to plant, 0=no damage to plant, read-out: plant damage rating, Foxtail, Giant; for pest or weed control at 250 g/ha: 250 g ai/ha
Outline: as §1

[6] = tested on: velvetleaf (Abutilon theophrasti); test: Test G Pre-Emergence Protocol; settings: Abutilon theophrasti, pre-emergence, 312 h, evaluated after 13 days; for pest or weed control at 15.625 g/ha: 15.625 g ai/ha; for pest or weed control at 15.625 g/ha / pest or weed control at 250 g/ha: read-out: Velvetleaf damage rating (100=total damage to plant; 0=no damage to plant); for pest or weed control at 62.5 g/ha: 62.5 g ai/ha, 100=total damage to plant, 0=no damage to plant, read-out: plant damage rating, Velvetleaf; for pest or weed control at 250 g/ha: 250 g ai/ha
Outline: as §1

[7] = tested on: ivy-leaved morning glory (Ipomoea hederacea); test: Test G Post-Emergence Protocol; settings: Ipomoea, post-emergence, 312 h; for pest or weed control at 15.625 g/ha: 15.625 g ai/ha, evaluated after 13 days (100=total damage to plant; 0=no damage to plant), read-out: Morningglory, Ivy-leaved damage rating; for pest or weed control at 62.5 g/ha: 62.5 g ai/ha, read-out: Morningglory, Ivy-leaved damage rating (100=total damage to plant; 0=no damage to plant); for pest or weed control at 62.5 g/ha / pest or weed control at 250 g/ha: evaluated after 13 days; for pest or weed control at 250 g/ha: 250 g ai/ha, read-out: damage to plant, Morningglory, Ivy-leaved (100=total damage to plant; 0=no damage to plant)
Outline: (§2)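 A glasshouse post-emergence test: 8-day-old plants sprayed at 15.625, 62.5 or 250 g/ha, then grown at 24/16 °C day/night with 14 h light and 65% humidity. Damage rated 13 days later, 0–100.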

[8] = tested on: redroot pigweed (Amaranthus retroflexus); test: Test G Post-Emergence Protocol; settings: Amaranthus retroflexus, post-emergence, 312 h; for pest or weed control at 15.625 g/ha: 15.625 g ai/ha, evaluated after 13 days (100=total damage to plant; 0=no damage to plant), read-out: Pigweed, Redroot damage rating; for pest or weed control at 62.5 g/ha: 62.5 g ai/ha, read-out: Pigweed, Redroot damage rating (100=total damage to plant; 0=no damage to plant); for pest or weed control at 62.5 g/ha / pest or weed control at 250 g/ha: evaluated after 13 days; for pest or weed control at 250 g/ha: 250 g ai/ha, read-out: damage to plant, Pigweed, Redroot (100=total damage to plant; 0=no damage to plant)
Outline: as §2

corn (Zea mays) [9] = test: Test G Post-Emergence Protocol; settings: Zea mays, post-emergence, 312 h; for plant injury at 15.625 g/ha: 15.625 g ai/ha, evaluated after 13 days (100=total damage to plant; 0=no damage to plant), read-out: Corn damage rating; for plant injury at 62.5 g/ha: 62.5 g ai/ha, read-out: Corn damage rating (100=total damage to plant; 0=no damage to plant); for plant injury at 62.5 g/ha / plant injury at 250 g/ha: evaluated after 13 days; for plant injury at 250 g/ha: 250 g ai/ha, read-out: damage to plant, Corn (100=total damage to plant; 0=no damage to plant)
Outline: as §2

[10] = tested on: barnyardgrass (Echinochloa crus-galli); test: Test G Post-Emergence Protocol; settings: Echinochloa crus-galli, post-emergence, 312 h; for pest or weed control at 15.625 g/ha: 15.625 g ai/ha, evaluated after 13 days (100=total damage to plant; 0=no damage to plant), read-out: Barnyardgrass damage rating; for pest or weed control at 62.5 g/ha: 62.5 g ai/ha, read-out: Barnyardgrass damage rating (100=total damage to plant; 0=no damage to plant); for pest or weed control at 62.5 g/ha / pest or weed control at 250 g/ha: evaluated after 13 days; for pest or weed control at 250 g/ha: 250 g ai/ha, read-out: damage to plant, Barnyardgrass (100=total damage to plant; 0=no damage to plant)
Outline: as §2

[11] = tested on: giant foxtail (Setaria faberi); test: Test G Post-Emergence Protocol; settings: Setaria faberi, post-emergence, 312 h; for pest or weed control at 15.625 g/ha: 15.625 g ai/ha, evaluated after 13 days (100=total damage to plant; 0=no damage to plant), read-out: Foxtail, Giant damage rating; for pest or weed control at 62.5 g/ha: 62.5 g ai/ha, read-out: Foxtail, Giant damage rating (100=total damage to plant; 0=no damage to plant); for pest or weed control at 62.5 g/ha / pest or weed control at 250 g/ha: evaluated after 13 days; for pest or weed control at 250 g/ha: 250 g ai/ha, read-out: damage to plant, Foxtail, Giant (100=total damage to plant; 0=no damage to plant)
Outline: as §2

[12] = tested on: velvetleaf (Abutilon theophrasti); test: Test G Post-Emergence Protocol; settings: Abutilon theophrasti, post-emergence, 312 h; for pest or weed control at 15.625 g/ha: 15.625 g ai/ha, evaluated after 13 days (100=total damage to plant; 0=no damage to plant), read-out: Velvetleaf damage rating; for pest or weed control at 62.5 g/ha: 62.5 g ai/ha, read-out: Velvetleaf damage rating (100=total damage to plant; 0=no damage to plant); for pest or weed control at 62.5 g/ha / pest or weed control at 250 g/ha: evaluated after 13 days; for pest or weed control at 250 g/ha: 250 g ai/ha, read-out: damage to plant, Velvetleaf (100=total damage to plant; 0=no damage to plant)
Outline: as §2

Structure (SMILES) | pest or weed control at 15.625 g/ha [1] | pest or weed control at 62.5 g/ha [1] | pest or weed control at 250 g/ha [1] | pest or weed control at 15.625 g/ha [2] | pest or weed control at 62.5 g/ha [2] | pest or weed control at 250 g/ha [2] | plant injury at 15.625 g/ha (corn (Zea mays) [3]) | plant injury at 62.5 g/ha (corn (Zea mays) [3]) | plant injury at 250 g/ha (corn (Zea mays) [3]) | pest or weed control at 15.625 g/ha [4] | pest or weed control at 62.5 g/ha [4] | pest or weed control at 250 g/ha [4] | pest or weed control at 15.625 g/ha [5] | pest or weed control at 62.5 g/ha [5] | pest or weed control at 250 g/ha [5] | pest or weed control at 15.625 g/ha [6] | pest or weed control at 62.5 g/ha [6] | pest or weed control at 250 g/ha [6] | pest or weed control at 15.625 g/ha [7] | pest or weed control at 62.5 g/ha [7] | other results
CN1C[C@@H](c2ccc(C(F)(F)F)cc2)[C@H](C(=O)Nc2cccc(F)c2C#N)C1=O (racemic) [Compound 1637] | 0% | 0% | 0% | 20% | 50% | 60% | 0% | 0% | 30% | 20% | 30% | 80% | 60% | 90% | 90% | 0% | 0% | 0% | 0% | 20% | pest or weed control at 250 g/ha [7]: 30%; pest or weed control at 15.625 g/ha [8]: 40%; pest or weed control at 62.5 g/ha [8]: 70%; pest or weed control at 250 g/ha [8]: 70%; plant injury at 15.625 g/ha (corn (Zea mays) [9]): 0%; plant injury at 62.5 g/ha (corn (Zea mays) [9]): 0%; plant injury at 250 g/ha (corn (Zea mays) [9]): 10%; pest or weed control at 15.625 g/ha [10]: 20%; pest or weed control at 62.5 g/ha [10]: 70%; pest or weed control at 250 g/ha [10]: 70%; pest or weed control at 15.625 g/ha [11]: 60%; pest or weed control at 62.5 g/ha [11]: 80%; pest or weed control at 250 g/ha [11]: 80%; pest or weed control at 15.625 g/ha [12]: 0%; pest or weed control at 62.5 g/ha [12]: 10%; pest or weed control at 250 g/ha [12]: 30%
C#Cc1ccccc1NC(=O)[C@H]1C(=O)N(C)C[C@@H]1c1ccc(C(F)(F)F)cc1 (racemic) [Compound 1422] | 0% | 0% | 0% | 0% | 0% | 0% | 0% | 0% | 0% | 0% | 0% | 0% | 0% | 10% | 50% | 0% | 0% | 0% | 0% | 0% | pest or weed control at 250 g/ha [7]: 0%; pest or weed control at 15.625 g/ha [8]: 0%; pest or weed control at 62.5 g/ha [8]: 0%; pest or weed control at 250 g/ha [8]: 0%; plant injury at 15.625 g/ha (corn (Zea mays) [9]): 10%; plant injury at 62.5 g/ha (corn (Zea mays) [9]): 10%; plant injury at 250 g/ha (corn (Zea mays) [9]): 0%; pest or weed control at 15.625 g/ha [10]: 0%; pest or weed control at 62.5 g/ha [10]: 0%; pest or weed control at 250 g/ha [10]: 0%; pest or weed control at 15.625 g/ha [11]: 0%; pest or weed control at 62.5 g/ha [11]: 0%; pest or weed control at 250 g/ha [11]: 20%; pest or weed control at 15.625 g/ha [12]: 0%; pest or weed control at 62.5 g/ha [12]: 0%; pest or weed control at 250 g/ha [12]: 0%
CN1C[C@H](c2ccc(C(C)(C)C)cc2)[C@@H](C(=O)Nc2ccccc2F)C1=O (racemic) [Compound 1409] | 0% | 0% | 0% | 0% | 0% | 0% | 0% | 0% | 0% | 0% | 0% | 10% | 0% | 0% | 40% | 0% | 0% | 0% | 0% | 0% | pest or weed control at 250 g/ha [7]: 0%; pest or weed control at 15.625 g/ha [8]: 0%; pest or weed control at 62.5 g/ha [8]: 0%; pest or weed control at 250 g/ha [8]: 10%; plant injury at 15.625 g/ha (corn (Zea mays) [9]): 0%; plant injury at 62.5 g/ha (corn (Zea mays) [9]): 0%; plant injury at 250 g/ha (corn (Zea mays) [9]): 10%; pest or weed control at 15.625 g/ha [10]: 0%; pest or weed control at 62.5 g/ha [10]: 10%; pest or weed control at 250 g/ha [10]: 30%; pest or weed control at 15.625 g/ha [11]: 0%; pest or weed control at 62.5 g/ha [11]: 0%; pest or weed control at 250 g/ha [11]: 40%; pest or weed control at 15.625 g/ha [12]: 0%; pest or weed control at 62.5 g/ha [12]: 0%; pest or weed control at 250 g/ha [12]: 10%
